Laboratory results taken from US20250145722A1, “ANTI-GAL3 ANTIBODIES AND METHODS OF USE” (TrueBinding, Inc., priority 2020, published 2025).

Molecular target: T1, interaction of Gal3 and Abeta (1-42) oligomer (Homo sapiens, UniProt P17931)
T1 construct: His
Assay: Gal3-Abeta (1-42) oligomer blocking ELISA
Format: binding
Details: at 10,000 nM
Description: To identify Gal3-targeted antibodies with the ability to block the interaction of Gal3 and Abeta, purified Gal3 and Abeta (1-42) peptide and oligomer were incubated in the presence (or absence) of various Gal3-targeted or control antibodies, or without antibody, and protein interaction was evaluated by ELISA.
The plate was incubated for an hour at room temperature with gentle rocking. Thereafter, the plate was washed three times with PBST. […] The plate was incubated at room temperature for an hour with gentle rocking and then washed three times with PBST. […] Percent blockade of Gal3-Abeta (1-42) peptide or oligomer interaction was calculated as the fraction of signal obtained in the absence of antibody with the background signal subtracted.
The plate was incubated for an hour at room temperature with gentle rocking. Thereafter, the plate was washed three times with PBST. […] The plate was incubated at room temperature for an hour with gentle rocking and then washed three times with PBST. […] Percent blockade of Gal3-Abeta (1-42) oligomer interaction was calculated as the fraction of signal obtained in the absence of antibody or inhibitor with the background signal subtracted.

T1 sequence (P17931 2-250 limits assumed): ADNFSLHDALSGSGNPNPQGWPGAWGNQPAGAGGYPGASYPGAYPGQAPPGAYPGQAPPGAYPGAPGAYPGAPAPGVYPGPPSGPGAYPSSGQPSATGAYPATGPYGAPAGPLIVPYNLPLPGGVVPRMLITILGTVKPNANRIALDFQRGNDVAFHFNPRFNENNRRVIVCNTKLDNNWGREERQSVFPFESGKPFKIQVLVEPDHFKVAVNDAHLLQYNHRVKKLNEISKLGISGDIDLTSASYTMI

Percent blockade of Gal3-Abeta (1-42) oligomer interaction: at most 19%
SMILES: OC[C@H]1O[C@@H](S[C@@H]2O[C@H](CO)[C@H](O)[C@H](n3cc(-c4cccc(F)c4)nn3)[C@H]2O)[C@H](O)[C@@H](n2cc(-c3cccc(F)c3)nn2)[C@H]1O [TD139]
